Test results taken from US8324267B2, “Kinase inhibitors and the use thereof” (Forschungzentrum Karlsruhe GmbH, priority 2001, dated 2012).
“Also recorded” adds a separate entry of the source.

Tests used:
Format in all cases: cell-based
VEGFR-2 = VEGFR-2 (Homo sapiens, UniProt P35968); experiment: Ligand-induced autophosphorylation in VEGFR-2-expressing PAE cells (immunoprecipitation, Western blot); conditions: PAE/VEGFR-2 cells, VEGF stimulated; 0.5, 5 or 50 μM; FIG. 1
Protocol: VEGFR-2- and VEGFR-3-expressing PAE cells (pig aorta endothel cells) were incubated with 0.5 μM, 5 μM or 50 μM of the appropriate test compound. The cells were then stimulated with VEGF (VEGFR-2) or VEGF-C (VEGFR-3) or without growth factor as negative control. The cells were harvested after 15 min and immunoprecipitated with VEGFR-2 or VEGFR-3. The immunoprecipitates were blotted after electrophoresis and investigated with anti-phosphotyrosine antibody. The blots were detached and investigated with VEGFR-2 or VEGFR-3 antibody to check the loading.
PAE/VEGFR-2 or PAE/VEGFR-3 were seeded in 15 cm tissue culture tissues and cultivated to 50% confluence. The cells were then starved in serum-free medium (with 0.2% BSA) for 16-24 h (PAE/VEGFR-3) or 72 h […]. After preincubation with 5 ml of 1 mM serum-free medium (1 mM Na3VO4) and various inhibitor concentrations for 30-60 min, the cells were stimulated at 37° C. for 5 min (VEGFR-3) or 8 min (VEGFR-2). The cells were then rapidly washed twice with ice-cold PBS (with 1 mM Na3VO4) and lysed with ice-cold modified RIPA buffer (30 mM Tris-HCl, pH 7.4, 150 mM NaCl, 1 mM EDTA, 0.5% (v/v) Triton X100, 0.5% (w/v) sodium deoxycholate, 10 mM NaF) freshly prepared with 1 mM PMSF, 0.1 U/ml aprotinin, 10 ng/ml leupeptin and 5 mM Na3VO4. The cells were harvested from the plate with the aid of a rubber policeman and collected in centrifuge tubes on ice. The lysates were solubilized by forcing through a syringe with a 25 G needle, and were centrifuged at 4° C./13 000 rpm for 15 min to remove insoluble constituents.
The clear lysates were incubated with 4 μg of anti-VEGFR-2 (C-1158, Santa Cruz) or […] at 4° C. overnight.
The receptor-antibody complex was precipitated by adding 30 μl of protein A-Sepharose (Amersham)/tube and incubating at 4° C. for a further 2 hours. […]

[1] = system: rat tumor cell lines (ASML, 1AS, G, AT6.1, MTLN3, MTLY, NM081 and MT450); experiment: Tumor cell proliferation, 3H-thymidine incorporation; conditions: 2.5 μM or 10 μM, 24 h, FIG. 4
Protocol: Cells of the rat tumor cell line (Nestl et al., 2001, Cancer Research 61: 1569-1577) were cultivated in the presence of 1% DMSO (solvent control), 2.5 μM or 10 μM of the indolinone for 24 h. Tritiated thymidine was added to the medium during the last 4-6 h of incubation. The cells were harvested and the amount of radioactivity incorporated into the DNA was quantified.
The data are stated in percent relative to the proliferation of the cells treated only with DMSO (% relative to control; see FIG. 4)).
FIG. 4: Measurement of the (^3H)-thymidine incorporation (in %) into rat tumor cell lines (ASML, 1AS, G, AT6.1, MTLN3, MTLY, NM081 and MT450) as a function of the concentration of inhibitors employed. The inhibition of cell proliferation by MAE87, MAE106 and MAZ51 is dose-dependent.

[2] = system: rat pancreatic tumor cells (1AS); experiment: Apoptosis, Cell Death Detection ELISA (nucleosome ELISA); conditions: 1AS cells, 24 h; FIG. 5
Protocol: Human endothelial cells (HDMEC) and rat pancreatic tumor cells (1AS) were resuspended (10^5 cells/ml). 50 μl of cell suspension were seeded in 96-well cell culture plates and incubated at 37° C. for 24 h. The cells were then incubated with the stated concentrations of the various inhibitors for a further 24 h. The pro-apoptotic effect of the compounds was determined using the Cell Death Detection ELISA^plus kit (Roche Diagnostics GmbH, Mannheim) in accordance with the manufacturer's statements. The kit contains a photometric enzyme immunoassay for qualitative and quantitative in vitro determination of cytoplasmic histone-associated DNA fragments (mono- and oligo-nucleosomes) released through active cell death (apoptosis). […] The measurements relative to the untreated cells are plotted against the inhibitor concentration.
FIG. 5: Nucleosome ELISA test (Cell Death Detection ELISA). The extent of dead cells of the respective cell line is depicted (as relative absorption at 405 nm) in relation to the use of the inhibitors MAE87, MAE106 and MAZ51 and MAZ51-2.

rat carcinoma cell lines = experiment: Apoptosis in rat tumor cell lines, nucleosome ELISA; conditions: 2.5 μM or 10 μM, 24 h, FIG. 6
Protocol: Cells of the rat tumor cell line (Nestl et al., 2001, Cancer Research 61: 1569-1577) were cultivated in the presence of 1% DMSO (solvent control), 2.5 μM or 10 μM of the indolinone for 24 h. Apoptosis was quantified with the aid of anti-DNA peroxidase antibody. The amount of dye produced in the chromogenic reaction catalyzed by the peroxidase was measured by photometry at 405 nm and correlated with the amount of apoptosis-associated cytoplasmic mono- and oligonucleosomes. The data are stated in % apoptosis relative to the cells of the solvent control (% relative to control) (FIG. 6).
FIG. 6: Nucleosome ELISA test (Cell Death Detection ELISA). The extent of dead cells of the respective rat tumor cell line is depicted (apoptosis in %) in relation to the use of the inhibitors MAE87, MAE106 and MAZ51.

VEGFR-2, sequence (P35968 20-1356): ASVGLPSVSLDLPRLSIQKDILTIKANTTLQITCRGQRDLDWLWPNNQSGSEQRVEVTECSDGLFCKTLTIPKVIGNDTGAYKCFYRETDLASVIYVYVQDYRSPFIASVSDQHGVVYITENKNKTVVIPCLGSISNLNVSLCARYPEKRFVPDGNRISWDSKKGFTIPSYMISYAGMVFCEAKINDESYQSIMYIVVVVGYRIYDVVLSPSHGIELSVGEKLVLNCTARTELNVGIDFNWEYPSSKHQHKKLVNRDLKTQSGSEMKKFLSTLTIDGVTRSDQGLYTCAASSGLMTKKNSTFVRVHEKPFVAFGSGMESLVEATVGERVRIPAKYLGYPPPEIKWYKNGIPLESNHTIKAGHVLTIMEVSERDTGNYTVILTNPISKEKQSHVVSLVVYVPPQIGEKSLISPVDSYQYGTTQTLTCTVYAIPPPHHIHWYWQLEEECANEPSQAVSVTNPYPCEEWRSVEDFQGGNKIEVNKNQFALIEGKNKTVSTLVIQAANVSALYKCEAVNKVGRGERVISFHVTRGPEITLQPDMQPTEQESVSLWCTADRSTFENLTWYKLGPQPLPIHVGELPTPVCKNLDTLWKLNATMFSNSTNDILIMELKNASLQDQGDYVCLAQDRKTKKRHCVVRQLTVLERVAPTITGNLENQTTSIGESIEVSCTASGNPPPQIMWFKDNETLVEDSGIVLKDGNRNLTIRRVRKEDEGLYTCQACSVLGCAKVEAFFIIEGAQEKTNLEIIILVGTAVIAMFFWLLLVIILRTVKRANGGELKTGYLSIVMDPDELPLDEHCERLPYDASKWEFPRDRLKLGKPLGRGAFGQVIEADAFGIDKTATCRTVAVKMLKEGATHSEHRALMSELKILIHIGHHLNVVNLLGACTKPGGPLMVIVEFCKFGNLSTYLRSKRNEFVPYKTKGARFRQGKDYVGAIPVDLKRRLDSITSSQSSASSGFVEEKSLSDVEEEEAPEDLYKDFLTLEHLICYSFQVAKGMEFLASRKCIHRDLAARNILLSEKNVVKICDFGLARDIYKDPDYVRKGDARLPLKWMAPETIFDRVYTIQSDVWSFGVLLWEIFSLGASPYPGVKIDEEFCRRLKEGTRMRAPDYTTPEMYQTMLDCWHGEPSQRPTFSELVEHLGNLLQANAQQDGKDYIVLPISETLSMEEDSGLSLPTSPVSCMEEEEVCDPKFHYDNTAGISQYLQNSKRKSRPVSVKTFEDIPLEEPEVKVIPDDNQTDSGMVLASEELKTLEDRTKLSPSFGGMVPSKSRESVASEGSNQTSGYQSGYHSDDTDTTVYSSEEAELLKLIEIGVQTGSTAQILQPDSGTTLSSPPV

| SMILES | inhibition of ligand-induced autophosphorylation of VEGFR-2 (VEGFR-2) | inhibition of tumor cell proliferation (3H-thymidine incorporation, % relative to control) [1] | induction of apoptosis (relative absorption at 405 nm) [2] | induction of apoptosis (% relative to solvent control) (rat carcinoma cell lines) |
| --- | --- | --- | --- | --- |
| O=C1Nc2ccccc2C1=Cc1ccc(O)cc1O [MAE87, 3-(2,4-Dihydroxybenzylidene)-1,3-dihydroindol-2-one] | Inhibit the Ligand-Induced Autophosphorylation | dose-dependent | Induced Apoptosis | induce cell death |
| COc1ccc(C=C2C(=O)Nc3ccccc32)cc1F [MAE106, 3-(3-Fluoro-4-methoxybenzylidene)-1,3-dihydroindole-2-one] | Inhibit the Ligand-Induced Autophosphorylation | dose-dependent | Induced Apoptosis | induce cell death |
| CN(C)c1ccc(C=C2C(=O)Nc3ccccc32)c2ccccc12 [MAZ51, 3-(4-Dimethylaminonaphthalen-1-ylmethylene)-1,3-dihydroindol-2-one] | Inhibit the Ligand-Induced Autophosphorylation | greatest inhibitory effect; also recorded: dose-dependent | potent activator of apoptosis | most potent apoptosis inducer; also recorded: induce cell death |
